Reference: patent US20030073133A1, “Individualization of therapy with erectile dysfunction agents” (McGill University, priority 2001, published 2003)
Where two headings read alike, the source gives them in different places. Marks after values point to notes of the source that are not given here.

Columns and labels:
[1] = system: AAMU-Ab; experiment: Competitive antigen ELISA, cross-reactivity of AAMU-Ab; assay type: binding, rabbit; settings: 0 = absence of inhibition or inhibition no higher than 40% at highest concentration tested (5 × 10^−3 M)
Procedure: (§1) Competitive Antigen Elisa
(§2) Buffers and water without additives are filtered through millipore filters and kept for 1 week. BSA, antibodies, Tween™ 20 and horse radish peroxidase conjugates are added to these buffers and water just prior to use. Urine samples are usually collected 4 hours after drinking a cup of coffee (instant or brewed with approximately 100 mg of caffeine per cup) and stored at −80° C. The urine samples are diluted 10 times with sodium phosphate buffer (620 mosm, pH 7.50) and are subsequently diluted with water to give concentrations of AAMU and 1X no higher than 3×10^−6 M in the ELISA. All the pipettings are done with an eight-channel pipette, except those of the antibody and sample solutions. Starting with the last well, 100 μL of a carbonate buffer (100 mM, pH 9.6) containing 2.5 μg mL-1 antibodies are added to each well. After 90 min. at room temperature, the wells are washed three times with 100 mL of TPB: isotonic sodium phosphate buffer (310 mosm, pH 7.50) containing 0.05% Tween™ 20.
(§3) After the initial wash, unoccupied sites are blocked by incubation for 90 min. at room temperature with 100 μL TBP containing 3% BSA. The wells are washed four times with 100 μL TPB. The washing is followed by additions of 50 μL of 12 mg mL^−1 AAMU-HRP or 1X-HRP conjugate in 2× TPB containing 2% BSA, and 50 μL of either water, standard (13 standards; AAMU or 1X, 2×10^−4 to 2×10^−8 M) or sample in duplicate. The microplate is gently shaken with an orbital shaker at room temperature for 3-4 hours. The wells are washed three times with 100 μL TPB containing 1% BSA and three times with water containing 0.05% Tween™ 20. To the washed plate is added 150 μL of a substrate buffer composed of citric acid (25 mM) and sodium phosphate dibasic buffer (50 mM, pH 5.0) containing 0.06% hydrogen peroxide and 0.04% o-phenylenediamine hydrochloride.
as §2, with “were” for “are”, “They were” for “The urine samples are”, “mL-^1” for “mL-1”, “was pipetted.” for “are added to each well.”, “μL” for “mL”
(§4) After the initial wash, unoccupied sites were blocked by incubation for 90 min. at room temperature with 100 μL TBP containing 3% BSA. The wells were washed four times with 100 μL TPB. This was followed by additions of […] of 12 mg mL^−1 AAMU-HRP or 1X-HRP conjugate in 2× TPB containing 2% BSA, and 50 μL of either water, standard (13 standards; AAMU or 1X, 2×10^−4 to 2×10^−8 M) or sample in duplicate. The microplate was gently shaken with an orbital shaker at room temperature for 3-4 hours. The wells were washed three times with 100 μL with TPB containing 1% BSA and three times with water containing 0.05% Tween™ 20. To the washed plate was added 150 μL of a substrate buffer composed of citric acid (25 mM) and sodium phosphate dibasic buffer (50 mM, pH 5.0) containing 0.06% hydrogen peroxide and 0.04% o-phenylenediamine hydrochloride. After 20 min. at room temperature with shaking, the reaction was stopped with 50 μL of 2.5 N HCl.
(§5) The cross reactivities of AAMU-Ab and 1X-Ab were tested using a wide variety of caffeine metabolites and structural analogs (Table 2 below).

[2] = system: 1X-Ab; experiment: Competitive antigen ELISA, cross-reactivity of 1X-Ab; assay type: binding, rabbit; settings: 0 = absence of inhibition or inhibition no higher than 40% at highest concentration tested (5 × 10^−3 M)
Procedure: as §1, §2, §3
as §2, with “were” for “are”, “They were” for “The urine samples are”, “mL-^1” for “mL-1”, “was pipetted.” for “are added to each well.”, “μL” for “mL”
as §4, §5

[3] = system: impotent men; settings: cited from earlier work
[4] = system: slow and fast acetylators; settings: cited from earlier work
[5] = system: individuals prescribed sildenafil; settings: postmarketing; cited from earlier work
[6] = system: poor vs. extensive metabolizers; settings: cited from earlier work
[7] = intracavernosal, mixed populations

SMILES | % Cross-Reaction AAMU-Ab [1] | % Cross-Reaction IX-Ab [2] [%] | further results
Nc1nc2nc[nH]c2c(=O)[nH]1 [Guanine] | 0% | 0 | 
Cn1cnc2[nH]c(=O)[nH]c(=O)c21 [7-Methyl Xanthine] | 0% | 0 | 
COc1ccc(Cc2nccc3cc(OC)c(OC)cc23)cc1OC [Papaverine] |  |  | penile fibrosis ([3]; after 1 year of treatment): up to 60%; response rates ([3]; alone or with phentolamine, mixed populations of impotent men): about 50%; average duration of erection ([3]; intracavernosal): 50 min
CCCCC[C@H](O)/C=C/[C@H]1[C@H](O)CC(=O)[C@@H]1CCCCCCC(=O)O [Alprostadil, prostaglandin E1] |  |  | average duration of erection ([3]; intracavernosal): 64 min; attempts in which erections were achieved [3, 7]: 87%; men who achieved erections [3, 7]: Ninety-four
CC(=O)Nc1c(N)n(C)c(=O)[nH]c1=O [5-Acetamino-6-amino-1-methyluracil] | 100% | 0 | 
O=c1[nH]c(=O)c2[nH]cnc2[nH]1 [Xanthine] | 0^a % | 0 | 
Cn1c(=O)[nH]c2ncn(C)c2c1=O [1,7-Dimethyl Xanthine (Paraxanthine), 1,7-Dimethyl Xanthine] | 0% | 0.5 | 
Cn1c(=O)[nH]c2[nH]c(=O)[nH]c2c1=O [1-Methyluric acid] | 0% | 11 | 
Cc1nc2[nH]c(=O)[nH]c(=O)c2[nH]1 [8-Methyl Xanthine] | 0% | 0 | 
O=c1[nH]cnc2nc[nH]c12 [Hypoxanthine] | 0% | 0 | 
Cn1c(=O)c2c(ncn2C)n(C)c1=O [1,3,7-Trimethyl Xanthine (Caffeine), 1,3,7-Trimethyl Xanthine] | 0% | 0 | 
Nc1ccc(S(=O)(=O)c2ccc(N)cc2)cc1 [dapsone, Dapsone] |  |  | adverse reactions ([4]; fast acetylators): 17%; adverse reactions ([4]; slow acetylators): 46%
CCCc1nn(C)c2c(=O)[nH]c(-c3cc(S(=O)(=O)N4CCN(C)CC4)ccc3OCC)nc12 [sildenafil, Sildenafil] |  |  | deaths identified as having cardiovascular events [5]: Forty-six; deaths with definite or suspected myocardial infarction [5]: 21; individual deaths reported after prescription [5]: 123
Cn1c(=O)[nH]c2nc[nH]c2c1=O [1-Methyl Xanthine (1x), 1-Methyl Xanthine] | 0% | 100 | 
O=c1cc[nH]c(=O)[nH]1 [Uracil] | 0% | 0 | 
CC(=O)Nc1c(N)n(C)c(=O)n(C)c1=O [5-Acetamino-6-amino-1,3-dimethyluracil] | 0% | 0 | 
Cn1cnc2c1c(=O)[nH]c(=O)n2C [3,7-Dimethyl Xanthine (Theobromine), 3,7-Dimethyl Xanthine] | 0% | 0 | 
Cn1c(=O)[nH]c(=O)c2[nH]cnc21 [3-Methyl Xanthine] | 0% | 0 | 
O=c1[nH]c(=O)c2[nH]c(=O)[nH]c2[nH]1 [Uric acid] | 0% | 0 | 
COc1ccc2c(c1)[C@]13CCCC[C@@H]1[C@H](C2)N(C)CC3 [Dextromethorphan] |  |  | mean performance +/−SE ([6]; EMs (extensive metabolizers)): 95+/−0.5%; mean performance +/−SE ([6]; PMs (poor metabolizers)): 86+/−6%
CC(=O)Nc1c(N)[nH]c(=O)[nH]c1=O [5-Acetamino-6-amino-uracil] | 0.6% | 0 | 
Cn1c(=O)c2[nH]cnc2n(C)c1=O [1,3-Dimethyl Xanthine (Theophylline), 1,3-Dimethyl Xanthine] | 0% | 0.2 | 
Cn1c(=O)[nH]c2[nH]c(=O)n(C)c2c1=O [1,7-Dimethyluric acid] | 0% | 0 | 
